According to the NIST ThermoML archive (doi:10.1016/j.jct.2010.10.018):

How the values were obtained:
[1] = 101.33 kPa, Liquid, Vibrating tube method
[2] = xn = mol fraction of the nth substance listed; conditions: 101 kPa, Liquid, Vibrating tube method, x2 = 0

CC(C)(C)O [2-methylpropan-2-ol]
[1]
Conditions	mass density [kg/m3]
299.15 K	779.48
303.15 K	775.39
308.15 K	770.15
313.15 K	764.84
318.15 K	759.46
323.15 K	753.94
333.15 K	742.7
348.15 K	725.06

O [water] + CC(C)(C)O
[2]
Conditions	mass density [kg/m3]
274.15 K	999.899
275.15 K	999.94
276.15 K	999.964
277.15 K	999.972
278.15 K	999.964
279.15 K	999.94
280.15 K	999.901
281.15 K	999.848
282.15 K	999.781
283.15 K	999.699
323.15 K	988.03
333.15 K	983.191
348.15 K	974.838
